Experimental data taken from patent US20100056606A1, “Combination therapy using budesonide and antisense oligonucleotide targeted to IL4-receptor alpha” (ISIS Pharmaceuticals, Inc., priority 2005, published 2010).

How the values were obtained:
[1] = mouse, in vivo
MUC2 mRNA = assay: Reduction of cytokine-induced MUC2 mRNA in human cells; assay type: cell-based; conditions: human A549 cells (table title)
IL-4R alpha mRNA = assay: Dose-dependent reduction of IL-4R alpha mRNA in human A549 cells; assay type: cell-based
Text: The human lung carcinoma cell line A549 was obtained from the American Type Culture Collection (Manassas, Va.). A549 cells were routinely cultured in DMEM, high glucose (Invitrogen Life Technologies, Carlsbad, Calif.) supplemented with 10% fetal bovine serum, 100 units per ml penicillin, and 100 micrograms per ml streptomycin (Invitrogen Life Technologies, Carlsbad, Calif.). Cells were routinely passaged by trypsinization and dilution when they reached approximately 90% confluence. Cells were seeded into 96-well plates (Falcon-Primaria #3872) at a density of approximately 5000 cells/well for use in oligomeric compound transfection experiments.
When cells reach appropriate confluency, they are treated with oligonucleotide using Lipofectin™ as described. When cells reached 65-75% confluency, they were treated with oligonucleotide. Oligonucleotide was mixed with LIPOFECTIN™ Invitrogen Life Technologies, Carlsbad, Calif.) in Opti-MEM™-1 reduced serum medium (Invitrogen Life Technologies, Carlsbad, Calif.) to achieve the desired concentration of oligonucleotide and a LIPOFECTIN™ concentration of 2.5 or 3 […] oligonucleotide. This transfection mixture was incubated at room temperature for approximately 0.5 hours. For cells grown in 96-well plates, wells were washed once with 100 μL OPTI-MEM™-1 and then treated with 130 μL of the transfection mixture. Cells grown in 24-well plates or other standard tissue culture plates are treated similarly, using appropriate volumes of medium and oligonucleotide. […]
Quantitation of IL-4R alpha mRNA levels was accomplished by real-time quantitative PCR using the ABI PRISM™ 7600, 7700, or 7900 Sequence Detection System (PE-Applied Biosystems, Foster City, Calif.) according to manufacturer's instructions.
In both cell types, at concentrations of 100 nM, 50 nM and 25 nM, ASOs 1-4 each caused dose-dependent reduction of target (TL-4R alpha) mRNA and protein (as measured by flow cytometry) with no significant effect on total cellular mRNA, measured 24 hours following ASO treatment.

OVA sensitized mice [2] = assay: Acute allergic inflammation mouse model with inhaled budesonide and/or ISIS 231894; assay type: in vivo
Method: In the mouse model of allergic inflammation, mice are sensitized and challenged with aerosolized chicken ovalbumin (OVA). Airway responsiveness is assessed by inducing airflow obstruction using a noninvasive method whereby unrestrained conscious OVA sensitized mice are placed into the main chamber of a plethysmograph (Buxco Electronics, Inc. Troy, N.Y.) and challenged with aerosolized methacholine. Pressure difference between this chamber and a reference chamber is used to extrapolate minute volume, breathing frequency and enhanced pause (Penh). Penh is a dimensionless parameter that is a function of total pulmonary airflow (i.e. the sum of the airflow in the upper and lower respiratory tracts) during the respiratory cycle of a mouse and is lower when airflow is greater.
For the acute model of allergic inflammation, mice were sensitized with 20 μg of alum-precipitated OVA was injected intraperitoneally on days 0 and 14. On days 24, 25 and 26, animals were exposed for 20 minutes to 1% OVA (in saline) by ultrasonic nebulization. On days 17, 19, 21, 24 and 26 animals were dosed with vehicle alone (saline), 1 μg/kg or 10 μg/kg of ISIS 231894 or the mismatch control oligonucleotide. Oligonucleotides or vehicle were suspended in 0.9% sodium chloride and delivered via inhalation using a nose-only aerosol delivery exposure system. A Lovelace nebulizer set at a flow rate of 1.4 liter per minute feeding into a total flow rate of 10 liters per minute was used to deliver the oligonucleotide. The exposure chamber was equilibrated with an oligonucleotide aerosol solution for 5 minutes before mice were placed in a restraint tube attached to the chamber. Restrained mice were treated for a total of 10 minutes. Analysis was performed on day 28.
The acute mouse model of allergic inflammation was used to determine if co-administration of inhaled IL-4R alpha antisense oligonucleotide would enhance the activity of inhaled budesonide, or reduce the dose required to produce anti-inflammatory activity. As described in Example 6, mice were sensitized with alum-precipitated OVA at day 0 and day 14 and nebulized with OVA in saline on days 24, 25 and 26. All mice were analyzed on day 28. Budesonide (0.3, 3, 30, and 300 μg/kg dissolved in PBS Containing 20% DMSO) was administered by nose-only aerosol exposure beginning on day 23 (24 and 20 hours before OVA exposure) and then daily through day 26, one hour prior to daily OVA exposure. The 30 μg/kg dose was also administered twice a day (bid) from day 23-26 as a separate group. As in Example 6, ISIS 231894 was administered by nose-only aerosol exposure at day 17, 19, 21, 23 and 26.
The effect of budesonide and/or ISIS 231894 treatment on AHR, BAL eosinophil infiltration and mucus accumulation (number of PAS-positive airways) were determined.

OVA sensitized mice [3] = assay: Allergic rhinitis mouse model, intranasal administration; assay type: in vivo
Method: In a mouse model of allergic rhinitis, animals were sensitized intraperitoneally with alum-precipitated OVA on days 1, 5, 10 and 15. OVA diluted with saline was administered intranasally (25 μL of 500 μg OVA in each nare) daily, on days 18-22, 25-29, and 32-35. ISIS 231894 and budesonide were administered intranasally, with budesonide administration one hour before each intranasal OVA challenge. ISIS 231894 was administered on days 11, 13, 15, and one hour before each intranasal OVA challenge. Endpoints were evaluated on day 36 and included nasal mucus accumulation (nasal histopathology) nasal eosinophilia, neutrophilia (by nasal lavage analysis and microscopic eosinophil counts in epithelial tissue) and allergic symptoms (numbers of sneezes and nose-rubs observed over a fixed time period).

OVA sensitized mice [4] = assay: Mouse model of allergic inflammation, chronic model (Penh, BAL cells, cytokines); assay type: in vivo; conditions: 2.5 mg/kg intraperitoneal, day 76
Method: In the mouse model of allergic inflammation, mice are sensitized and challenged with aerosolized chicken ovalbumin (OVA). Airway responsiveness is assessed by inducing airflow obstruction using a noninvasive method whereby unrestrained conscious OVA sensitized mice are placed into the main chamber of a plethysmograph (Buxco Electronics, Inc. Troy, N.Y.) and challenged with aerosolized methacholine. Pressure difference between this chamber and a reference chamber is used to extrapolate minute volume, breathing frequency and enhanced pause (Penh). Penh is a dimensionless parameter that is a function of total pulmonary airflow (i.e. the sum of the airflow in the upper and lower respiratory tracts) during the respiratory cycle of a mouse and is […] when airflow is greater. This parameter closely correlates with lung resistance as measured by traditional, invasive techniques using ventilated animals (Hamelmann et al., 1997, Am. J. Respir. Crit. Care Med. 156:766-775).
In the chronic model of allergic inflammation, mice are subjected to repeated intranasal OVA administration, producing a chronic inflammatory response. In this model, mice were sensitized by intraperitoneal injection with 100 μg of OVA on days 0 and 14 as in the previous models. OVA was administered at a dose of 500 μg on days 14, 27, 28, 29, 47, 61, 73, 74 and 75. Oligonucleotide, either ISIS 231894 or the mismatch control, was administered via the nose-only aerosol delivery exposure system at a dose of either 5 μg/kg or 500 μg/kg on days 31, 38, 45, 52, 59, 66 and 73. Dexamethasone, an anti-inflammatory agent, was administered by intraperitoneal injection at 2.5 mg/kg on days 47, 62, 73, 74 and 75. Analysis of endpoints was performed on day 76, except cytokines which were evaluated on day 62, 6 hours post OVA challenge. Endpoints were similar to those in the acute and rechallenge model, and included Penh (AHR), BAL inflammatory cell accumulation and cytokines and mucus accumulation.

[5] = 30 μg/kg budesonide alone (Table 9)
[6] = Table 11, 35 μg/kg + 5% DMSO intranasal
[7] = Table 11, 35 μg/kg + 20% DMSO intranasal

ASO3: antisense oligonucleotide targeted to human IL-4R alpha; TGGAAAGGCTTATACCCCTC; SEQ ID NO: 25 (chemistry not given here)
macrophage infiltrate in the lung, in words [1]: dose-related macrophage infiltrate was observed | serum chemistry markers or lung morphology (histology), in words ([1]; ip): no change | MUC-2 mRNA (MUC2 mRNA; 25 nM): 86 % of untreated control | MUC-2 mRNA (MUC2 mRNA; 50 nM): 63 % of untreated control | MUC-2 mRNA (MUC2 mRNA; 100 nM): 39 % of untreated control | IL-4R alpha mRNA (IL-4R alpha mRNA; 25 nM): 45 % of untreated control | IL-4R alpha mRNA (IL-4R alpha mRNA; 50 nM): 29 % of untreated control | IL-4R alpha mRNA (IL-4R alpha mRNA; 100 nM): 17 % of untreated control

CCCC1O[C@@H]2C[C@H]3[C@@H]4CCC5=CC(=O)C=C[C@]5(C)[C@H]4[C@@H](O)C[C@]3(C)[C@]2(C(=O)CO)O1 (some centres unmarked) [budesonide]
% Eosinophils (BAL) (OVA sensitized mice [2]; 0.3 μg/kg inhaled (Table 8)): 41% | Penh (100 mg/mL methacholine) (OVA sensitized mice [2]; 0.3 μg/kg inhaled (Table 8)): 4.75 | % Eosinophils (BAL) (OVA sensitized mice [2]; 3 μg/kg inhaled (Table 8)): 32% | Penh (100 mg/mL methacholine) (OVA sensitized mice [2]; 3 μg/kg inhaled (Table 8)): 4.5 | % Eosinophils (BAL) (OVA sensitized mice [2]; 30 μg/kg bid inhaled): 20% | Penh (100 mg/mL methacholine) (OVA sensitized mice [2]; 30 μg/kg bid inhaled): 3.25 | % Eosinophils (BAL) (OVA sensitized mice [2]; [5]): 20% | PAS+ airways (mucus accumulation) (OVA sensitized mice [2]; [5]): 18 | Penh (100 mg/mL methacholine) (OVA sensitized mice [2]; [5]): 5.5 | % Eosinophils (BAL) (OVA sensitized mice [2]; 30 μg/kg inhaled (Table 8)): 21% | Penh (100 mg/mL methacholine) (OVA sensitized mice [2]; 30 μg/kg inhaled (Table 8)): 3.25 | % Eosinophils (BAL) (OVA sensitized mice [2]; 300 μg/kg inhaled (Table 8)): 15% | Penh (100 mg/mL methacholine) (OVA sensitized mice [2]; 300 μg/kg inhaled (Table 8)): 3.75 | minimum effective dose (OVA sensitized mice [2]; inhaled): 0.03 mg/kg | Nasal rubs (OVA sensitized mice [3]; Table 10, 3.5 μg/kg intranasal): 5 per 5 min | Sneezes (OVA sensitized mice [3]; Table 10, 3.5 μg/kg intranasal): 6 per 5 min | % Nasal lavage eosinophils (OVA sensitized mice [3]; Table 10, 35 μg/kg intranasal): 11% | % Nasal lavage neutrophils (OVA sensitized mice [3]; Table 10, 35 μg/kg intranasal): 28% | Nasal rubs (OVA sensitized mice [3]; Table 10, 35 μg/kg intranasal): 4.5 per 5 min | Sneezes (OVA sensitized mice [3]; Table 10, 35 μg/kg intranasal): 2 per 5 min | % Nasal lavage eosinophils (OVA sensitized mice [3]; Table 10, 350 μg/kg intranasal): 4% | % Nasal lavage neutrophils (OVA sensitized mice [3]; Table 10, 350 μg/kg intranasal): 12% | Nasal rubs (OVA sensitized mice [3]; Table 10, 350 μg/kg intranasal): 4 per 5 min | Sneezes (OVA sensitized mice [3]; Table 10, 350 μg/kg intranasal): 3 per 5 min | % Nasal lavage eosinophils (OVA sensitized mice [3]; Table 10, 500 μg/kg intranasal): 2% | % Nasal lavage neutrophils (OVA sensitized mice [3]; Table 10, 500 μg/kg intranasal): 6% | Nasal rubs (OVA sensitized mice [3]; Table 10, 500 μg/kg intranasal): 2 per 5 min | Sneezes (OVA sensitized mice [3]; Table 10, 500 μg/kg intranasal): 2 per 5 min | % Nasal lavage eosinophils (OVA sensitized mice [3]; [6]): 7% | % Nasal lavage neutrophils (OVA sensitized mice [3]; [6]): 9% | Nasal rubs (OVA sensitized mice [3]; [6]): 0.6 per 5 min | Sneezes (OVA sensitized mice [3]; [6]): 2.8 per 5 min | Tissue eosinophils (OVA sensitized mice [3]; [6]): 174 per mm^2 | % Nasal lavage eosinophils (OVA sensitized mice [3]; [7]): 7% | % Nasal lavage neutrophils (OVA sensitized mice [3]; [7]): 12% | Nasal rubs (OVA sensitized mice [3]; [7]): 1.2 per 5 min | Sneezes (OVA sensitized mice [3]; [7]): 5.8 per 5 min

C[C@@H]1C[C@H]2[C@@H]3CCC4=CC(=O)C=C[C@]4(C)[C@@]3(F)[C@@H](O)C[C@]2(C)[C@@]1(O)C(=O)CO [dexamethasone, reference compound]
% Eosinophils (BAL) (OVA sensitized mice [4]): 25% | % Neutrophils (BAL) (OVA sensitized mice [4]): 58%
